± gives the expanded uncertainty stated by the source.
Assay: mn = molality of the nth substance listed, in mol/kg
Settings: 101 kPa, Liquid; for mass density: Pycnometric method; for viscosity: Capillary tube (Ostwald / Ubbelohde) method; for speed of sound: Linear variable-path acoustic interferometer

O=[N+]([O-])[O-].O=[N+]([O-])[O-].[Mg+2] [magnesium nitrate] + O
Settings	mass density [kg/m3]	speed of sound [m/s]	viscosity [mPa·s]
306.45 K, m1 = 0.0145	995.89 ± 0.66	–	–
306.5 K, m1 = 0.896	1083.6 ± 0.7	–	–
306.5 K, m1 = 3.096	1266.4 ± 0.8	–	–
306.65 K, m1 = 0.5931	1054 ± 0.7	–	–
306.65 K, m1 = 3.501	1294.4 ± 0.9	–	–
306.7 K, m1 = 3.118	1267.2 ± 0.8	–	–
306.7 K, m1 = 3.757	1310.9 ± 0.9	–	–
306.7 K, m1 = 5.134	1397 ± 1	–	–
306.75 K, m1 = 4.728	1373.4 ± 1	–	–
306.8 K, m1 = 3.17	1276 ± 0.9	–	–
307.05 K, m1 = 0.6173	1056.6 ± 0.7	–	–
307.05 K, m1 = 4.883	1379.9 ± 1	–	–
307.25 K, m1 = 1.827	1167 ± 0.8	–	–
307.45 K, m1 = 4.039	1327.9 ± 1	–	–
307.6 K, m1 = 2.584	1228.1 ± 0.9	–	–
307.65 K, m1 = 4.97	1385.7 ± 1	–	–
307.7 K, m1 = 3.704	1307.2 ± 0.8	–	–
307.8 K, m1 = 2.793	1243.4 ± 0.8	–	–
307.9 K, m1 = 1.694	1154 ± 0.8	–	–
307.95 K, m1 = 0.2491	1020.1 ± 0.7	–	–
308.1 K, m1 = 4.403	1351 ± 0.9	–	–
308.15 K, m1 = 0.0145	–	1520.8 ± 1.9	0.7364 ± 0.0097
308.15 K, m1 = 0.0528	–	1522.6 ± 1.9	0.745 ± 0.0099
308.15 K, m1 = 0.2491	–	1536.2 ± 1.9	0.7877 ± 0.01
308.15 K, m1 = 0.3405	–	1539.2 ± 1.9	–
308.15 K, m1 = 0.5931	–	–	0.8757 ± 0.011
308.15 K, m1 = 0.6173	–	1559.2 ± 1.9	–
308.15 K, m1 = 0.896	–	1578.7 ± 1.9	–
308.15 K, m1 = 0.9898	–	1585.6 ± 1.9	1.005 ± 0.013
308.15 K, m1 = 1.262	–	1602.4 ± 1.9	1.11 ± 0.015
308.15 K, m1 = 1.525	–	1621.7 ± 1.9	–
308.15 K, m1 = 1.827	–	1644.8 ± 1.9	1.342 ± 0.017
308.15 K, m1 = 2.131	–	1666.7 ± 2	1.498 ± 0.019
308.15 K, m1 = 2.493	–	1688 ± 2	–
308.15 K, m1 = 2.584	–	–	1.777 ± 0.023
308.15 K, m1 = 2.793	–	1708.9 ± 2	–
308.15 K, m1 = 3.096	–	–	2.146 ± 0.028
308.15 K, m1 = 3.118	–	1728.7 ± 2	–
308.15 K, m1 = 3.17	–	1735.9 ± 2	–
308.15 K, m1 = 3.329	–	–	2.343 ± 0.031
308.15 K, m1 = 3.501	–	1752.2 ± 2	–
308.15 K, m1 = 3.704	–	–	2.692 ± 0.035
308.15 K, m1 = 3.757	–	1770.5 ± 2	–
308.15 K, m1 = 4.039	–	–	3.089 ± 0.04
308.15 K, m1 = 4.051	–	1781.1 ± 2	–
308.15 K, m1 = 4.285	–	1794.4 ± 2	–
308.15 K, m1 = 4.403	–	1800.6 ± 2.1	–
308.15 K, m1 = 4.728	–	–	4.262 ± 0.056
308.15 K, m1 = 4.883	–	1826.2 ± 2.1	–
308.15 K, m1 = 4.907	–	–	4.654 ± 0.061
308.15 K, m1 = 5.134	–	1838.4 ± 2.1	–
308.15 K, m1 = 5.282	–	–	5.506 ± 0.072
308.35 K, m1 = 0.9898	1091.9 ± 0.7	–	–
308.4 K, m1 = 1.525	1138.7 ± 0.8	–	–
308.45 K, m1 = 1.262	1116 ± 0.8	–	–
308.55 K, m1 = 0.3405	1028.5 ± 0.7	–	–
308.7 K, m1 = 5.282	1404.1 ± 1	–	–
308.75 K, m1 = 3.757	1309.6 ± 0.9	–	–
308.85 K, m1 = 3.096	1265 ± 0.8	–	–
308.85 K, m1 = 4.285	1343.6 ± 0.9	–	–
308.95 K, m1 = 3.118	1265.8 ± 0.8	–	–
309 K, m1 = 0.896	1082.4 ± 0.7	–	–
309.05 K, m1 = 4.728	1371.9 ± 1	–	–
309.25 K, m1 = 2.131	1191 ± 0.8	–	–
309.3 K, m1 = 2.493	1218.8 ± 0.9	–	–
309.35 K, m1 = 4.883	1378.4 ± 0.9	–	–
309.4 K, m1 = 4.051	1326.7 ± 0.9	–	–
309.5 K, m1 = 0.0145	994.82 ± 0.66	–	–
309.5 K, m1 = 0.5931	1052.8 ± 0.7	–	–
309.5 K, m1 = 0.6173	1055.5 ± 0.7	–	–
309.6 K, m1 = 0.0528	999.02 ± 0.66	–	–
309.65 K, m1 = 1.827	1165.8 ± 0.8	–	–
309.75 K, m1 = 4.97	1384.3 ± 1	–	–
309.9 K, m1 = 2.584	1226.7 ± 0.9	–	–
309.95 K, m1 = 3.704	1305.7 ± 0.9	–	–
310.1 K, m1 = 1.694	1152.8 ± 0.8	–	–
310.15 K, m1 = 4.403	1349.7 ± 0.9	–	–
310.7 K, m1 = 0.9898	1090.8 ± 0.7	–	–
310.8 K, m1 = 0.2491	1019 ± 0.7	–	–
310.9 K, m1 = 3.096	1263.8 ± 0.8	–	–
310.95 K, m1 = 1.262	1114.7 ± 0.8	–	–
311 K, m1 = 3.501	1291.7 ± 0.9	–	–
311 K, m1 = 3.757	1308.1 ± 0.9	–	–
311.05 K, m1 = 3.17	1273.3 ± 0.9	–	–
311.2 K, m1 = 3.118	1264.5 ± 0.8	–	–
311.25 K, m1 = 2.131	1189.9 ± 0.8	–	–
311.25 K, m1 = 4.728	1370.6 ± 0.9	–	–
311.35 K, m1 = 5.134	1394 ± 0.8	–	–
311.45 K, m1 = 4.883	1377.1 ± 1	–	–
311.55 K, m1 = 0.896	1081.3 ± 0.8	–	–
311.75 K, m1 = 1.827	1164.7 ± 1.1	–	–
311.9 K, m1 = 4.039	1325 ± 0.9	–	–
311.95 K, m1 = 5.282	1402.5 ± 0.9	–	–
312 K, m1 = 4.97	1382.9 ± 0.9	–	–
312.1 K, m1 = 0.6173	1054.3 ± 0.7	–	–
312.15 K, m1 = 1.694	1151.6 ± 0.8	–	–
312.15 K, m1 = 2.793	1240.8 ± 0.9	–	–
312.25 K, m1 = 0.0528	997.99 ± 0.67	–	–
312.4 K, m1 = 4.403	1348.2 ± 0.9	–	–
312.45 K, m1 = 0.0145	993.76 ± 0.67	–	–
312.95 K, m1 = 1.525	1136.3 ± 0.7	–	–
313.1 K, m1 = 1.262	1113.5 ± 0.8	–	–
313.15 K, m1 = 0.0145	–	1532.2 ± 1.9	0.6666 ± 0.0088
313.15 K, m1 = 0.0528	–	1531.9 ± 1.9	0.6778 ± 0.0089
313.15 K, m1 = 0.2491	–	1544.5 ± 1.9	0.7155 ± 0.0094
313.15 K, m1 = 0.3405	–	1546 ± 1.9	–
313.15 K, m1 = 0.5931	–	–	0.7972 ± 0.01
313.15 K, m1 = 0.6173	–	1566.4 ± 1.9	–
313.15 K, m1 = 0.896	–	1584.7 ± 1.9	–
313.15 K, m1 = 0.9898	–	1591.3 ± 1.9	0.913 ± 0.012
313.15 K, m1 = 1.262	–	1607.1 ± 1.9	1.008 ± 0.013
313.15 K, m1 = 1.525	–	1625.9 ± 1.9	–
313.15 K, m1 = 1.827	–	1647.8 ± 1.9	1.305 ± 0.017
313.15 K, m1 = 2.131	–	1667.8 ± 2	1.364 ± 0.018
313.15 K, m1 = 2.493	–	1688.9 ± 2	–
313.15 K, m1 = 2.584	–	–	1.616 ± 0.021
313.15 K, m1 = 2.793	–	1709 ± 2	–
313.15 K, m1 = 3.096	1262.3 ± 0.8	–	1.947 ± 0.025
313.15 K, m1 = 3.118	–	1728.1 ± 2	–
313.15 K, m1 = 3.17	–	1734.7 ± 2	–
313.15 K, m1 = 3.329	–	–	2.128 ± 0.028
313.15 K, m1 = 3.501	–	1751.2 ± 2	–
313.15 K, m1 = 3.704	–	–	2.435 ± 0.032
313.15 K, m1 = 3.757	–	1767.8 ± 2	–
313.15 K, m1 = 4.039	–	–	2.798 ± 0.036
313.15 K, m1 = 4.051	–	1778.4 ± 2	–
313.15 K, m1 = 4.285	–	1791.3 ± 2	–
313.15 K, m1 = 4.403	–	1797.9 ± 2.1	–
313.15 K, m1 = 4.728	–	–	3.817 ± 0.05
313.15 K, m1 = 4.883	–	1823.1 ± 2.1	–
313.15 K, m1 = 4.907	–	–	4.176 ± 0.055
313.15 K, m1 = 5.134	–	1834.3 ± 2.1	–
313.15 K, m1 = 5.282	–	–	4.924 ± 0.065
313.25 K, m1 = 3.118	1263.3 ± 0.8	–	–
313.25 K, m1 = 4.285	1340.7 ± 1.1	–	–
313.45 K, m1 = 0.2491	1017.9 ± 0.7	–	–
313.5 K, m1 = 2.493	1216.4 ± 0.9	–	–
313.6 K, m1 = 2.131	1188.5 ± 0.8	–	–
313.7 K, m1 = 0.3405	1026.4 ± 0.7	–	–
313.7 K, m1 = 4.883	1375.5 ± 0.9	–	–
313.8 K, m1 = 0.896	1080.2 ± 0.8	–	–
313.8 K, m1 = 4.051	1324 ± 0.9	–	–
314.1 K, m1 = 2.793	1239.5 ± 0.9	–	–
314.15 K, m1 = 3.704	1303 ± 0.9	–	–
314.15 K, m1 = 5.282	1401.1 ± 1	–	–
314.25 K, m1 = 2.584	1224.2 ± 0.9	–	–
314.45 K, m1 = 0.5931	1050.6 ± 0.7	–	–
314.45 K, m1 = 0.6173	1053.3 ± 0.7	–	–
314.5 K, m1 = 1.694	1150.4 ± 0.9	–	–
314.5 K, m1 = 4.403	1346.8 ± 1	–	–

Reference: the NIST ThermoML archive (doi:10.1021/je060107n)
